Measurements reported in ChEMBL document CHEMBL1136490, “Synthesis of non-immunosuppressive cyclophilin-Binding cyclosporin A derivatives as potential anti-HIV-1 drugs” (Bioorg Med Chem Lett, 2003).

Tests used:
[1] = biological target: Peptidyl-prolyl cis-trans isomerase A (Homo sapiens, UniProt P62937); assay: Immunosuppressive activity was measured by inhibition of the IL-2 production in Jurkat cells.; type: functional, cell-based
[2] = biological target: Human immunodeficiency virus type 1 reverse transcriptase (Human immunodeficiency virus 1, UniProt Q72547); assay: In vitro inhibitory activity against HIV-1 RT in CEM4 cell line; type: cell-based

Sequence of Peptidyl-prolyl cis-trans isomerase A (P62937 whole entry): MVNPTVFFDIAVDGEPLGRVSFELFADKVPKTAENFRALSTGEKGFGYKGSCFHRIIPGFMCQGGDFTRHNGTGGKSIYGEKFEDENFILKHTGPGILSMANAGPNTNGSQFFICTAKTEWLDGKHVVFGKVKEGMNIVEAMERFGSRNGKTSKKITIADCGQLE

IC50 [1]	IC50 [2]	SMILES
882 nM	19.5 nM	C/C=C/C[C@@H](C)[C@@H](O)[C@H]1C(=O)N[C@@H](CC)C(=O)N(C)[C@H](SCCN2CCCCC2)C(=O)N(C)[C@@H](CC(C)(C)O)C(=O)N[C@@H](C(C)C)C(=O)N(C)[C@@H](CC(C)C)C(=O)N[C@@H](C)C(=O)N[C@H](C)C(=O)N(C)[C@@H](CC(C)C)C(=O)N(C)[C@@H](CC(C)C)C(=O)N(C)[C@@H](C(C)C)C(=O)N1C
–	95 nM	C/C=C/C[C@@H](C)[C@@H](O)C1C(=O)N[C@@H](CC)C(=O)N(C)[C@H](CO)C(=O)N(C)[C@@H](CC(C)(C)O)C(=O)N[C@@H](C(C)C)C(=O)N(C)[C@@H](CC(C)C)C(=O)N[C@@H](C)C(=O)N[C@H](C)C(=O)N(C)[C@@H](CC(C)C)C(=O)N(C)[C@@H](CC(C)C)C(=O)N(C)[C@@H](C(C)C)C(=O)N1C (stereo not given in full)
3 nM	65.5 nM	C/C=C/C[C@@H](C)[C@@H](O)[C@H]1C(=O)N[C@@H](CC)C(=O)N(C)[C@H](SC)C(=O)N(C)[C@@H](CC(C)C)C(=O)N[C@@H](C(C)C)C(=O)N(C)[C@@H](CC(C)C)C(=O)N[C@@H](C)C(=O)N[C@H](C)C(=O)N(C)[C@@H](CC(C)C)C(=O)N(C)[C@@H](CC(C)C)C(=O)N(C)[C@@H](C(C)C)C(=O)N1C
61 nM	19.5 nM	C/C=C/C[C@@H](C)[C@@H](O)[C@H]1C(=O)N[C@@H](CC)C(=O)N(C)[C@H](SCCN(C)C(C)C)C(=O)N(C)[C@@H](CC(C)C)C(=O)N[C@@H](C(C)C)C(=O)N(C)[C@@H](CC(C)C)C(=O)N[C@@H](C)C(=O)N[C@H](C)C(=O)N(C)[C@@H](CC(C)C)C(=O)N(C)[C@@H](CC(C)C)C(=O)N(C)[C@@H](C(C)C)C(=O)N1C
6050 nM	47 nM	C/C=C/C[C@@H](C)[C@@H](O)[C@H]1C(=O)N[C@@H](CC)C(=O)N(C)[C@H](SCCN(CC)CC)C(=O)N(C)[C@@H](CC(C)(C)O)C(=O)N[C@@H](C(C)C)C(=O)N(C)[C@@H](CC(C)C)C(=O)N[C@@H](C)C(=O)N[C@H](C)C(=O)N(C)[C@@H](CC(C)C)C(=O)N(C)[C@@H](CC(C)C)C(=O)N(C)[C@@H](C(C)C)C(=O)N1C
277 nM	24 nM	C/C=C/C[C@@H](C)[C@@H](O)[C@H]1C(=O)N[C@@H](CC)C(=O)N(C)[C@H](SCCN(C)C(C)(C)C)C(=O)N(C)[C@@H](CC(C)C)C(=O)N[C@@H](C(C)C)C(=O)N(C)[C@@H](CC(C)C)C(=O)N[C@@H](C)C(=O)N[C@H](C)C(=O)N(C)[C@@H](CC(C)C)C(=O)N(C)[C@@H](CC(C)C)C(=O)N(C)[C@@H](C(C)C)C(=O)N1C
15 nM	2.5 nM	C/C=C/C[C@@H](C)[C@@H](O)[C@H]1C(=O)N[C@@H](CC)C(=O)N(C)[C@H](SCCN(CC)CC)C(=O)N(C)[C@@H](CC(C)C)C(=O)N[C@@H](C(C)C)C(=O)N(C)[C@@H](CC(C)C)C(=O)N[C@@H](C)C(=O)N[C@H](C)C(=O)N(C)[C@@H](CC(C)C)C(=O)N(C)[C@@H](CC(C)C)C(=O)N(C)[C@@H](C(C)C)C(=O)N1C
–	45 nM	C/C=C/C[C@@H](C)[C@@H](O)[C@H]1C(=O)N[C@@H](CC)C(=O)N(C)[C@H](SCCN(C)C)C(=O)N(C)[C@@H](CC(C)(C)O)C(=O)N[C@@H](C(C)C)C(=O)N(C)[C@@H](CC(C)C)C(=O)N[C@@H](C)C(=O)N[C@H](C)C(=O)N(C)[C@@H](CC(C)C)C(=O)N(C)[C@@H](CC(C)C)C(=O)N(C)[C@@H](C(C)C)C(=O)N1C [SCY 635]
166 nM	–	C/C=C/C[C@@H](C)[C@@H](O)[C@H]1C(=O)N[C@@H](CC)C(=O)N(C)CC(=O)N(C)[C@@H](CC(C)(C)O)C(=O)N[C@@H](C(C)C)C(=O)N(C)[C@@H](CC(C)C)C(=O)N[C@@H](C)C(=O)N[C@H](C)C(=O)N(C)[C@@H](CC(C)C)C(=O)N(C)[C@@H](CC(C)C)C(=O)N(C)[C@@H](C(C)C)C(=O)N1C
19 nM	70 nM	C/C=C/C[C@@H](C)[C@@H](O)[C@H]1C(=O)N[C@@H](CC)C(=O)N(C)[C@H](SCCO)C(=O)N(C)[C@@H](CC(C)C)C(=O)N[C@@H](C(C)C)C(=O)N(C)[C@@H](CC(C)C)C(=O)N[C@@H](C)C(=O)N[C@H](C)C(=O)N(C)[C@@H](CC(C)C)C(=O)N(C)[C@@H](CC(C)C)C(=O)N(C)[C@@H](C(C)C)C(=O)N1C
47 nM	35 nM	C/C=C/C[C@@H](C)[C@@H](O)[C@H]1C(=O)N[C@@H](CC)C(=O)N(C)[C@H](SCCN(C)C)C(=O)N(C)[C@@H](CC(C)C)C(=O)N[C@@H](C(C)C)C(=O)N(C)[C@@H](CC(C)C)C(=O)N[C@@H](C)C(=O)N[C@H](C)C(=O)N(C)[C@@H](CC(C)C)C(=O)N(C)[C@@H](CC(C)C)C(=O)N(C)[C@@H](C(C)C)C(=O)N1C
165 nM	80.5 nM	C/C=C/C[C@@H](C)[C@@H](O)[C@H]1C(=O)N[C@@H](CC)C(=O)N(C)[C@H](SCCn2ccnc2)C(=O)N(C)[C@@H](CC(C)C)C(=O)N[C@@H](C(C)C)C(=O)N(C)[C@@H](CC(C)C)C(=O)N[C@@H](C)C(=O)N[C@H](C)C(=O)N(C)[C@@H](CC(C)C)C(=O)N(C)[C@@H](CC(C)C)C(=O)N(C)[C@@H](C(C)C)C(=O)N1C
783 nM	–	C/C=C/C[C@@H](C)[C@@H](O)[C@H]1C(=O)N[C@@H](CC)C(=O)N(C)[C@H](CO)C(=O)N(C)[C@@H](CC(C)(C)O)C(=O)N[C@@H](C(C)C)C(=O)N(C)[C@@H](CC(C)C)C(=O)N[C@@H](C)C(=O)N[C@H](C)C(=O)N(C)[C@@H](CC(C)C)C(=O)N(C)[C@@H](CC(C)C)C(=O)N(C)[C@@H](C(C)C)C(=O)N1C
–	138 nM	C/C=C/C[C@@H](C)[C@@H](O)C1C(=O)N[C@@H](CC)C(=O)N(C)CC(=O)N(C)[C@@H](CC(C)(C)O)C(=O)N[C@@H](C(C)C)C(=O)N(C)[C@@H](CC(C)C)C(=O)N[C@@H](C)C(=O)N[C@H](C)C(=O)N(C)[C@@H](CC(C)C)C(=O)N(C)[C@@H](CC(C)C)C(=O)N(C)[C@@H](C(C)C)C(=O)N1C (stereo not given in full)
1570 nM	43 nM	C/C=C/C[C@@H](C)[C@@H](O)[C@H]1C(=O)N[C@@H](CC)C(=O)N(C)[C@H](SCCN(C)C(C)(C)C)C(=O)N(C)[C@@H](CC(C)(C)O)C(=O)N[C@@H](C(C)C)C(=O)N(C)[C@@H](CC(C)C)C(=O)N[C@@H](C)C(=O)N[C@H](C)C(=O)N(C)[C@@H](CC(C)C)C(=O)N(C)[C@@H](CC(C)C)C(=O)N(C)[C@@H](C(C)C)C(=O)N1C
128 nM	101 nM	C/C=C/C[C@@H](C)[C@@H](O)[C@H]1C(=O)N[C@@H](CC)C(=O)N(C)[C@H](SCCN2CCOCC2)C(=O)N(C)[C@@H](CC(C)C)C(=O)N[C@@H](C(C)C)C(=O)N(C)[C@@H](CC(C)C)C(=O)N[C@@H](C)C(=O)N[C@H](C)C(=O)N(C)[C@@H](CC(C)C)C(=O)N(C)[C@@H](CC(C)C)C(=O)N(C)[C@@H](C(C)C)C(=O)N1C
97 nM	72 nM	C/C=C/C[C@@H](C)[C@@H](O)[C@H]1C(=O)N[C@@H](CC)C(=O)N(C)[C@H](SCCN2CCCCC2)C(=O)N(C)[C@@H](CC(C)C)C(=O)N[C@@H](C(C)C)C(=O)N(C)[C@@H](CC(C)C)C(=O)N[C@@H](C)C(=O)N[C@H](C)C(=O)N(C)[C@@H](CC(C)C)C(=O)N(C)[C@@H](CC(C)C)C(=O)N(C)[C@@H](C(C)C)C(=O)N1C
959 nM	80 nM	C/C=C/C[C@@H](C)[C@@H](O)[C@H]1C(=O)N[C@@H](CC)C(=O)N(C)[C@H](SCCO)C(=O)N(C)[C@@H](CC(C)(C)O)C(=O)N[C@@H](C(C)C)C(=O)N(C)[C@@H](CC(C)C)C(=O)N[C@@H](C)C(=O)N[C@H](C)C(=O)N(C)[C@@H](CC(C)C)C(=O)N(C)[C@@H](CC(C)C)C(=O)N(C)[C@@H](C(C)C)C(=O)N1C
934 nM	293 nM	C/C=C/C[C@@H](C)[C@@H](O)[C@H]1C(=O)N[C@@H](CC)C(=O)N(C)CC(=O)N(C)[C@@H](C[C@@H](C)CC)C(=O)N[C@@H](C(C)C)C(=O)N(C)[C@@H](CC(C)C)C(=O)N[C@@H](C)C(=O)N[C@H](C)C(=O)N(C)[C@@H](CC(C)C)C(=O)N(C)[C@@H](CC(C)C)C(=O)N(C)[C@@H](C(C)C)C(=O)N1C

SMILES	IC50 [1]	IC50 [2]
C/C=C/C[C@@H](C)[C@@H](O)[C@H]1C(=O)N[C@@H](CC)C(=O)N(C)[C@H](SC)C(=O)N(C)[C@@H](CC(C)(C)O)C(=O)N[C@@H](C(C)C)C(=O)N(C)[C@@H](CC(C)C)C(=O)N[C@@H](C)C(=O)N[C@H](C)C(=O)N(C)[C@@H](CC(C)C)C(=O)N(C)[C@@H](CC(C)C)C(=O)N(C)[C@@H](C(C)C)C(=O)N1C	110 nM	84 nM
